Key:
[1] = test system: pain; details: cited from earlier work
[2] = cited from earlier work; for accumulation: during multiple dose treatment with tramadol
[3] = cited from earlier work
[4] = target: μ-opiate receptors (Homo sapiens, UniProt P35372); details: cited from earlier work
[5] = test system: neurogenic pain in the distal lower limbs, feet and digits; lower back pain; assay: Treatment of patient with severe back pain (Patient 1, case report); details: Patient 1, oral tramadol at doses up to 500 mg per day as needed
[6] = test system: child; details: 4 mg/kg of tramadol to a child; cited from earlier work
[7] = test system: neuropathic pain (secondary peripheral distal neuropathy of both feet and legs); assay: Treatment of patient suffering from diabetic neuropathy (Patient 2, case report); type: in vivo, human
Description: Patient 2 was a person with a history of untreated diabetes. Secondary peripheral distal neuropathy of both feet and legs was among the patients' clinical complaints. […] The patient gradually self escalated the dosage of aspirin to 10 to 12×325 mg tablets per day. The patient then presented after self treatment for several weeks at the emergency room complaining of gastric pain and blood in the vomitus. […] The patient was stabilized through dietary intervention with antacids and released after several days.

Chain of μ-opiate receptors (P35372 whole entry): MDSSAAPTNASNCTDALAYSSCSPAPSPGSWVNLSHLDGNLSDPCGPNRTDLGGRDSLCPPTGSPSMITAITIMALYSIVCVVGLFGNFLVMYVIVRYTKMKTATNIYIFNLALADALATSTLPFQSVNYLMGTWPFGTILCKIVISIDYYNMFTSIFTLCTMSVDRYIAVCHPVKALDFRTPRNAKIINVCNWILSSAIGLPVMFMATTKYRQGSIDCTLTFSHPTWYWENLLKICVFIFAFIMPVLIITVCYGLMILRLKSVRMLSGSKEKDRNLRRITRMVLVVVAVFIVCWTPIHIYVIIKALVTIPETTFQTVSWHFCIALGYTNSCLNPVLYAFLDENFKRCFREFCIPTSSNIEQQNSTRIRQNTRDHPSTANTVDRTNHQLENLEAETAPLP

CN(C)C[C@H]1CCCC[C@]1(O)c1cccc(O)c1 [M1 derivative, O-desmethyltramadol]
analgesic potency relative to the parent drug ([1]; relative to tramadol): at least twice the analgesic potency of the parent drug
accumulation [2]: approximately 2 fold

Cn1c(=O)c2c(ncn2C)n(C)c1=O [caffeine, 3,7-dihydro-1,3,7-trimethyl-1H-purine-2,6-dione]
time to maximal plasma concentrations ([3]; after oral, rectal or parenteral administration): ≤ 1 h
half-life in plasma ([3]; in vivo): 3 to 7 h

COc1cccc(C2(O)CCCCC2CN(C)C)c1 (racemic) [tramadol, (+/−)-trans (RR,SS)-2-[(di-methylamino)methyl]-1-(3-methoxyphenyl)cyclohexanol]
duration of the analgesic effect ([1]; after a single oral dose of tramadol 100 mg): about 6 hours
affinity for μ-opiate receptors, fold less than codeine ([4]; relative to codeine): 10 fold
affinity for μ-opiate receptors, fold less than d-propoxyphene ([4]; relative to d-propoxyphene): 100 fold
affinity for μ-opiate receptors compared with dextromethorphan ([4]; relative to dextromethorphan): equivalent to dextromethorphan
affinity for μ-opiate receptors, fold less than morphine ([4]; relative to morphine): 6.000 fold
reported pain range [5]: tolerable
side effects [5]: no significant side effects
time to peak serum concentrations ([2]; after oral administration): ≤ 2 h
accumulation [2]: approximately 2 fold
adverse effect after inadvertent administration [6]: seizure activity

CC(=O)Oc1ccccc1C(=O)O [aspirin, acetylsalicylic acid]
diagnosis after self treatment ([7]; Patient 2, 10 to 12×325 mg tablets per day for several weeks): gastro-esophageal erosion and hemorrhage
control of neuropathic pain ([7]; Patient 2, treatment with aspirin and other NSAIDs): only marginally effective

Reference: patent US20090312361A1, “NOVEL PHARMACEUTICAL COMPOSITIONS FOR TREATING ACQUIRED CHRONIC PAIN AND ASSOCIATED DYSPHORIA” (priority 2004, published 2009)
